Source: publication PMC10765884, “MC180295 is a highly potent and selective CDK9 inhibitor with preclinical in vitro and in vivo efficacy in cancer” (Clinical Epigenetics, 2024)

Columns and labels:
[1] = Drug toxicity: body weights and complete blood counts in tumor-bearing mice; type: in vivo; conditions: MV4-11 model, NSG mice, Fig. S4D
CT26.CL25 cells = assay: CT26.CL25 colon cancer model in B6 mice with/without CD8 depletion; type: in vivo; conditions: CT26.CL25 s.c. in B6 mice, MC180295 20 mg/kg i.p. q.o.d., DAC 0.5 mg/kg i.p. daily
Protocol: Fig. 5 Survival and antitumor effects of MC180295, DAC, or their combination, with/without CD8 + T cells. A 20 mg/kg MC180295 was administered (i.p.) q.o.d. 0.5 mg/kg DAC was administered (i.p.) daily. Mouse survival in days. B Survival of B6 mice, after CD8 depletion, using an anti-CD8 antibody. 20 mg/kg MC180295 was administered (i.p.) q.o.d. 0.5 mg/kg DAC was administered (i.p.) daily. C Antitumor effects of MC180295 with and without CD8 depletion, using an anti-CD8 antibody. B6 mice were inoculated (s.c.) with 5 × 10^5 CT26.CL25 cells. Eight days later, when tumors were palpable, 20 mg/kg MC180295 was administered (i.p.) q.o.d. 0.5 mg/kg DAC was administered (i.p.) daily. Tumor sizes were measured using a caliper and calculated over vehicle. D Antitumor effects of DAC, with and without CD8 depletion, using an anti-CD8 antibody. B6 mice were inoculated (s.c.) with 5 × 10^5 CT26.CL25 cells. Eight days later, when tumors were palpable, 20 mg/kg MC180295 was administered (i.p.) q.o.d. 0.5 mg/kg DAC was administered (i.p.) daily. Tumor sizes were measured using a caliper and calculated over vehicle. E Antitumor effects of DAC + MC180295, with and without CD8 depletion, using an anti-CD8 antibody. B6 mice were inoculated (s.c.) with 5 × 10^5 CT26.CL25 cells. Eight days later, when tumors were palpable, 20 mg/kg MC180295 was administered (i.p.) q.o.d. 0.5 mg/kg DAC was administered (i.p.) daily. Tumor sizes were measured using a caliper and calculated over vehicle. Significances were calculated using log-rank (Mantel-Cox) or Student's T tests. Data shown as means ± SEMs
For the s.c. SW48 model, 2 × 10^6 cells were injected into the flanks of randomly assigned, gender-matched 8–10-week-old NSG mice. 20 mg/kg MC180379, MC180380, or MC180295 was injected (i.p.), every other day, when the tumors were palpable, 11 days after engraftment, until endpoints were met. Mice were sacrificed before tumor volumes exceeded 400 mm^2 (endpoint for this model). For the s.c. HT29 model, 2 × 10^6 cells were injected into the flanks of randomly assigned, gender-matched, 8–10-week-old NSG mice. […]

BT474 = assay: Growth inhibition (cell counting, day 5); type: cell-based; conditions: Homo sapiens, BT-474; Breast
Protocol: (§1) The live-cell assay for GFP reactivation in YB5 cells was done as previously described. Cells were treated with a single dose of drug 24 h after seeding at low density, and GFP fluorescence measured in a Millipore Guava flow cytometer (EMD, Millipore) instrument, or by imaging in a Cytation instrument (Agilent). Cancer cell lines (listed in Additional file 1: Fig. S1A) were obtained from ATCC or the Temple/Fox Chase Cellular Repository and cultured in the recommended medium. To measure growth inhibition, cells were seeded in 96-well plates at 40% confluency. Fresh medium was changed the next day and drugs were added directly. Drug-free fresh medium was changed on the fourth day. The cells were collected on day 5 by trypsin, suspended in medium, mixed with trypan blue (Thermo Fisher Scientific) (1:1 ratio), and counted using a LUNA II automated cell counter. Each sample was counted at least three times, and average numbers used for the analysis. Each treatment condition was performed in biological triplicates.

THP-1 = assay: Growth inhibition (cell counting, day 5); type: cell-based; conditions: Homo sapiens, Leukemia
Protocol: as §1

451LU = assay: Growth inhibition (cell counting, day 5); type: cell-based; conditions: Melanoma
Protocol: as §1

HCCC1937 = assay: Growth inhibition (cell counting, day 5); type: cell-based; conditions: Breast
Protocol: as §1

SKBR3 = assay: Growth inhibition (cell counting, day 5); type: cell-based; conditions: Homo sapiens, SK-BR-3; Breast
Protocol: as §1

KM12 = assay: Growth inhibition (cell counting, day 5); type: cell-based; conditions: Homo sapiens, Colon
Protocol: as §1

A2058 = assay: Growth inhibition (cell counting, day 5); type: cell-based; conditions: Homo sapiens, Melanoma
Protocol: as §1

RKO = assay: Growth inhibition (cell counting, day 5); type: cell-based; conditions: Homo sapiens, Colon
Protocol: as §1

WM3912 = assay: Growth inhibition (cell counting, day 5); type: cell-based; conditions: Melanoma
Protocol: as §1

K562 = assay: Growth inhibition (cell counting, day 5); type: cell-based; conditions: Homo sapiens, Leukemia
Protocol: as §1

UC3 = assay: Growth inhibition (cell counting, day 5); type: cell-based; conditions: Bladder
Protocol: as §1

SW48 = assay: Growth inhibition (cell counting, day 5); type: cell-based; conditions: Homo sapiens, Colon
Protocol: as §1

HCT116 = assay: Growth inhibition (cell counting, day 5); type: cell-based; conditions: Homo sapiens, HCT-116; Colon
Protocol: as §1

OCI-AML3 = assay: Growth inhibition (cell counting, day 5); type: cell-based; conditions: Homo sapiens, OCI-AML-3; Leukemia
Protocol: as §1

MALME-3M = assay: Growth inhibition (cell counting, day 5); type: cell-based; conditions: Homo sapiens, Melanoma
Protocol: as §1

M14 = assay: Growth inhibition (cell counting, day 5); type: cell-based; conditions: Homo sapiens, Melanoma
Protocol: as §1

VACCC257 = assay: Growth inhibition (cell counting, day 5); type: cell-based; conditions: Melanoma
Protocol: as §1

Nc1nc(N[C@H]2C[C@@H]3CC[C@H]2C3)sc1C(=O)c1ccccc1[N+](=O)[O-] (relative stereo) [MC180295]
body weights [1]: did not affect NSG mouse body weights
survival (CT26.CL25 cells): extended survival
tumor size (CT26.CL25 cells): significantly decreased tumor size
IC50 (BT474): 80 nM
IC50 (THP-1): 43 nM
IC50 (451LU): 110 nM
IC50 (HCCC1937): 124 nM
IC50 (SKBR3): 122 nM
IC50 (KM12): 102 nM
IC50 (A2058): 198 nM
IC50 (RKO): 76.8 nM
IC50 (WM3912): 119 nM
IC50 (K562): 502 nM
IC50 (UC3): 101 nM
IC50 (SW48): 98.1 nM
IC50 (HCT116): 92.2 nM
IC50 (OCI-AML3): 95.3 nM
IC50 (MALME-3M): 350 nM
IC50 (M14): 305 nM
IC50 (VACCC257): 343 nM
